Measured values as given in patent US8372379B2, “Technetium-99m (I) tricarbonyl complexes with tridentate chelators for myocardium imaging” (Mallinckrodt LLC, priority 2006, dated 2013).

Experiment: Biodistribution of 99mTc complexes in female CD-1 mice after intravenous injection
Format: in vivo
Settings: i.v.
Procedure: These studies have been designed as a preliminary screening tool to evaluate the biological profile of the cationic tricarbonyl complexes. The biodistribution of the complexes was evaluated in groups of 5 female CD-1 mice (randomly bred, Charles River) weighing approximately 20-25 g each and have been performed according to EEC Legislation (National Law 129/92) on ethical and animal care. Animals were intravenously injected with 100 μL (1.5-8.0 MBq) of each preparation via the tail vein and were maintained on normal diet ad libitum. […] The injected radioactive dose and the radioactivity remaining in the animal after sacrifice were measured in a dose calibrator (Aloka, Curiemeter IGC-3, Tokyo, Japan). The difference between the radioactivity in the injected and sacrificed animal was assumed to be due to total excretion from whole body animal. Blood samples were taken by cardiac puncture at sacrifice. Tissue samples of the main organs were then removed, weighted and counted in a gamma counter (Berthold). Biodistribution results were expressed as percentage of the injected dose per organ (% ID/organ) and/or per gram tissue (% ID/g). For blood, total activity was calculated assuming that this organ constitutes 6% of the total weight, respectively. The remaining activity in the carcass was also measured in a dose calibrator.

Blood uptake (5 min p.i.): 2.0 ± 0.4 % ID/g of wet organ
Heart uptake (5 min p.i.): 9.4 ± 0.4 % ID/g of wet organ
Heart/Blood ratio (5 min p.i.): 4.1 ± 0.7
Heart/Liver ratio (5 min p.i.): 0.9 ± 0.2
Heart/Lung ratio (5 min p.i.): 3.5 ± 0.8
Kidney uptake (5 min p.i.): 34.2 ± 2.4 % ID/g of wet organ
Liver uptake (5 min p.i.): 9.0 ± 1.8 % ID/g of wet organ
Lung uptake (5 min p.i.): 2.4 ± 0.6 % ID/g of wet organ
Blood uptake (1 h (60 min) p.i.): 1.2 ± 0.4 % ID/g of wet organ
Heart uptake (1 h (60 min) p.i.): 8.0 ± 0.6 % ID/g of wet organ
Heart/Blood ratio (1 h (60 min) p.i.): 7.9 ± 3.6
Heart/Liver ratio (1 h (60 min) p.i.): 1.4 ± 0.1
Heart/Lung ratio (1 h (60 min) p.i.): 6.3 ± 0.6
Kidney uptake (1 h (60 min) p.i.): 14.8 ± 6.1 % ID/g of wet organ
Liver uptake (1 h (60 min) p.i.): 5.6 ± 0.3 % ID/g of wet organ
Lung uptake (1 h (60 min) p.i.): 1.3 ± 0.2 % ID/g of wet organ
Blood uptake (2 h (120 min) p.i.): 1.1 ± 0.3 % ID/g of wet organ
Heart uptake (2 h (120 min) p.i.): 7.9 ± 1.0 % ID/g of wet organ
Heart/Blood ratio (2 h (120 min) p.i.): 7.4 ± 2.3
Heart/Liver ratio (2 h (120 min) p.i.): 1.8 ± 0.7
Heart/Lung ratio (2 h (120 min) p.i.): 9.2 ± 1.1
Kidney uptake (2 h (120 min) p.i.): 9.7 ± 1.8 % ID/g of wet organ
Liver uptake (2 h (120 min) p.i.): 5.0 ± 2.1 % ID/g of wet organ
Lung uptake (2 h (120 min) p.i.): 0.9 ± 0.2 % ID/g of wet organ
Structure (SMILES): [C-]#[N+]CC(C)(C)OC.[C-]#[N+]CC(C)(C)OC.[C-]#[N+]CC(C)(C)OC.[C-]#[N+]CC(C)(C)OC.[C-]#[N+]CC(C)(C)OC.[C-]#[N+]CC(C)(C)OC.[Tc] [^99mTc-Sestamibi]
